These results are taken from publication PMC11619978 (Heliyon, 2024).

“Also recorded” adds a separate entry of the source.

Series [1] concerns the target human lysosomal acid-α-glucosidase (Homo sapiens, UniProt P10253). The series is described as follows: α-glucosidase inhibition assay. The format is biochemical.
Series [2] has as its target T1, human pancreatic α-amylase (Homo sapiens, UniProt P04746).
T1 sequence (P04746 16-511): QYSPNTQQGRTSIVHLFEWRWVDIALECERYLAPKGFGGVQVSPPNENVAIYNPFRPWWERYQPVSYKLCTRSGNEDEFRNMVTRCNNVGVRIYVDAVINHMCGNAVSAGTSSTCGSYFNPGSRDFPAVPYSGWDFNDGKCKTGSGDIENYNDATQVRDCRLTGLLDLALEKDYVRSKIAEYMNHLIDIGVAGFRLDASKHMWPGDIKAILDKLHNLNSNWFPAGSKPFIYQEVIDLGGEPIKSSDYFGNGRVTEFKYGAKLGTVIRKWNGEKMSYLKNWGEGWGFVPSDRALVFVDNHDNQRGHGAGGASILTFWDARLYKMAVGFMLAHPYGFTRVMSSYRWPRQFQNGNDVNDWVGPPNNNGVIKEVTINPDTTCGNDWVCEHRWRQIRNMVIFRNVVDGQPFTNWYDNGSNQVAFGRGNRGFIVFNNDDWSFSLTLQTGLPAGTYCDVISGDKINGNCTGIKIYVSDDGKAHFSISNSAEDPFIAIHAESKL
The series is described as follows: α-amylase inhibition assay. It is filed as biochemical.

Another series deals with α-glucosidase (Homo sapiens, UniProt P10253). The series is described as follows: enzymatic kinetic study on α-glucosidase. It is filed as biochemical. The following applies: for mode of α-glucosidase inhibition: Lineweaver-Burk plot.
The target of the next series is T2, α-amylase (Homo sapiens, UniProt P04746).
T2 sequence (P04746 16-511): T1 sequence (P04746 16-511)
The series is described as follows: enzymatic kinetic study on α-amylase. It is filed as biochemical. The following applies: for mode of α-amylase inhibition: Lineweaver-Burk plot.

For another series, the system named is female mice. The series is described as follows: acute oral toxicity. It is filed as in vivo. The following applies: three female mice.

With `CC(C)[C@@H]1CC[C@@H](C)C[C@@]12N(C)C(=O)[C@@H]1C[C@@H](Cc3cccc(/C=N/NC(=O)Nc4ccccc4)c3O)ON12` [5a], the IC50 is 263 ± 12.2 µM in series [1] and 151 ± 7.4 µM in series [2].

For the compound `CC(C)[C@@H]1CC[C@@H](C)C[C@@]12N(C)C(=O)[C@@H]1C[C@@H](Cc3cccc(/C=N/NC(=S)Nc4ccccc4)c3O)ON12` [5b], the IC50 in series [1] came to 286 ± 13.5 µM; in series [2], 198 ± 9.5 µM.

Regarding `CCNC(=S)N/N=C/c1cccc(C[C@@H]2C[C@H]3C(=O)N(C)[C@@]4(C[C@H](C)CC[C@H]4C(C)C)N3O2)c1O` [5c], the IC50 in series [1] was 203 ± 10 µM; in series [2], 73.1 ± 3.31 µM.

`CC(C)[C@@H]1CC[C@@H](C)C[C@@]12N(C)C(=O)[C@@H]1C[C@@H](Cc3cccc(/C=N/NC(=S)N(C)C)c3O)ON12` [5d]: the concentration for half-maximal inhibition (IC50) in series [1] is 98.6 ± 4.35 µM; in series [2], 58.8 ± 2.22 µM.

`CC(C)[C@@H]1CC[C@@H](C)C[C@@]12N(C)C(=O)[C@@H]1C[C@@H](Cc3cccc(/C=N/NC(N)=S)c3O)ON12` [5e]: the IC50 in series [1] was 49.3 ± 2.19 µM; in series [2], 33.9 ± 1.09 µM.

Turning to `CC(C)[C@@H]1CC[C@@H](C)C[C@@]12N(C)C(=O)[C@@H]1C[C@@H](Cc3cccc(/C=N/NC(N)=O)c3O)ON12` [5f], at α-glucosidase, the Ki is 37 µM and the “mode of α-glucosidase inhibition” value is given as “competitive; also recorded: compete with the substrate for binding to the active site”. At α-amylase, the Ki is 24.9 µM and the “mode of α-amylase inhibition” value is “competitive inhibition”. In series [1], inhibition was half-maximal at 39.1 ± 1.83 µM (IC50). Also, in series [1] (versus acarbose IC50), the “fold improvement over acarbose, α-glucosidase” value is listed as roughly 20 fold. This compound also displayed an IC50 in series [2] of 26.7 ± 1.25 µM. Moreover, the “fold improvement over acarbose, α-amylase” value in series [2] (versus acarbose IC50) is reported as “about 11 fold”. Further, the “survival at 1600 mg/kg b.w.” value with female mice (1600 mg/kg b.w.) is “only one mouse was survived”. The “dose with no toxicity (no significant adverse effects or mortality)” value in the series on female mice is listed as “up to 1000 mg/kg b.w”.

On to `CNC(=S)N/N=C/c1cccc(C[C@@H]2C[C@H]3C(=O)N(C)[C@@]4(C[C@H](C)CC[C@H]4C(C)C)N3O2)c1O` [5g], for which the figures for the IC50 in series [1] and in series [2] were 158 ± 7.09 µM and 64.2 ± 3.15 µM, respectively.

In the case of `C[C@H]1O[C@H](O[C@H]2[C@H](O)[C@@H](O)[C@@H](O[C@H]3[C@H](O)[C@@H](O)C(O)O[C@@H]3CO)O[C@@H]2CO)[C@H](O)[C@@H](O)[C@@H]1N[C@H]1C=C(CO)[C@@H](O)[C@H](O)[C@H]1O` (stereo partly drawn) [Acarbose, reference compound], the “mode of α-glucosidase inhibition” value on α-glucosidase is recorded as “competitive; also recorded: compete with the substrate for binding to the active site”. Further, the “mode of α-amylase inhibition” value on α-amylase is “competitive”.

Usually IC50 stands for the point on the concentration scale where inhibition reaches its midpoint. A higher IC50 goes with weaker potency. The term Ki denotes a measure of affinity in units of concentration, obtained from inhibition or displacement. A high value points to a looser hold on the target.
